# In patent US20120264703A1, “Methods And Compositions For The Treatment Of Anxiety Disorders, Including Post Traumatic Stress Disorder (PTSD) And Related Central Nervous System (CNS) Disorders” (priority 2010, published 2012):
# How the values were obtained:
# alkaline phosphatase = target: T1, alkaline phosphatase (Bos taurus, UniProt P19111); test: Dephosphorylation of phosphocarvedilol by alkaline phosphatase (HPLC); format: biochemical; conditions: alkaline phosphatase 1390 Units, overnight at 37° C., TRIS pH 8.1
# T1 construct: purchased Sigma P0114
# T1 sequence (P19111 20-506): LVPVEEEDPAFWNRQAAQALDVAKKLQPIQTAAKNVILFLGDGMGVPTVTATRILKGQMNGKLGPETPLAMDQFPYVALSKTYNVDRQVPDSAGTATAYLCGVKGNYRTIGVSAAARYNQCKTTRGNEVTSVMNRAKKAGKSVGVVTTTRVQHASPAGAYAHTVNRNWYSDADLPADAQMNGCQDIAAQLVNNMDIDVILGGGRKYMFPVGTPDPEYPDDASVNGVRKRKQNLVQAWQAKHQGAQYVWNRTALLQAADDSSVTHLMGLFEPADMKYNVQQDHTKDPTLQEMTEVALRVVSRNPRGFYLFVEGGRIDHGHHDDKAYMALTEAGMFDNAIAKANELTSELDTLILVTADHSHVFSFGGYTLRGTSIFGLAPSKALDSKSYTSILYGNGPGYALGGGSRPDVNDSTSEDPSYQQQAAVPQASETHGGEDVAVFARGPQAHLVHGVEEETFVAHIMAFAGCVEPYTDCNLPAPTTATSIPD
# Protocol: The dried residue was reconstituted in a 1 mL solution of TRIS (pH 8.1, 0.05M) and NaCl (0.1M) for dephosphorylation with alkaline phosphatase. Dephosphorylation was initiated by adding 10 μL (1390 Units) of alkaline phosphatase (Sigma P0114) and incubating overnight at 37° C. 10 μL aliquots were removed and diluted to 100 μL in mobile phase before analyzing by injecting onto the HPLC column (as described above) in 20 μL amounts. After treatment with the alkaline phosphatase, a carvedilol peak with a retention time of about 14.95 minutes was detected.
# [1] = cited from earlier work
# [2] = low solubility and low absorption; cited from earlier work
# [3] = in vivo; cited from earlier work
# [4] = Clinical trial of carvedilol versus placebo in PTSD: adverse events, blood pressure, heart rate; format: in vivo, human
# Source text: The efficacy of carvedilol was examined in a clinical trial using a parallel group, randomized, double-blind method with 50% of the outpatients receiving a flexible dose of alpha and beta blocker carvedilol for treatment of PTSD and the other 50% receiving a flexible close of matching placebo tablets. The trial consisted of a one week screening period followed by baseline symptom measurement and five weeks of PTSD pharmacotherapy. Patient assessments took place each week throughout the course of the trial. At the baseline visit, all patients were titrated to one dose of 3.125 mg carvedilol or placebo in the morning and an additional dose in the evening for the first week of the trial (6.25 mg carvedilol per day). At the discretion of the investigator the dose of carvedilol or placebo could be increased to a maximum of two tablets (6.250 mg carvedilol) in the morning and two tablets (6.250 mg carvedilol) in the evening during the following visit (week 1). At the week 2 visit the investigator could increase the dose of carvedilol or placebo to a maximum of 5 pills daily (15.625 mg carvedilol per day) based on patient tolerability and treatment response. After the second visit investigators were encouraged to maintain patient dose throughout the remainder of the five week trial although they were allowed to decrease the dose in the event that tolerability issues arose.
# [5] = Pharmacokinetic properties of carvedilol by oral dosage form and transdermal patch (Example 6); format: in vivo, human
# Protocol: The pharmacokinetic properties of orally and transdermal patch delivered carvedilol can be measured in a human subject or animal model using standard procedures. In brief, a carvedilol oral dosage form of between 5-15 mg can be administered to a human subject in a tablet or capsule. A similar dosage can be administered to a human subject from a transdermal patch that is formulated and evaluated for skin permeation (such as as described by Ubaidulla et al., 2007). After administration of carvedilol, blood samples are drawn from the subject at time intervals (such as 1, 2, 3, 5, 8, 12, and 24 hours), plasma is separated by centrifugation, and plasma samples are stored at −70° C. until analyzed. The plasma carvedilol concentration is measured by reverse phase-high performance liquid chromatography (Ubaidulla et al., 2007).
# The plasma concentration of carvedilol at different time intervals is subjected to pharmacokinetic analysis to calculate various parameters: maximum plasma concentration (Cmax), time to reach maximum concentration (Tmax), and area under the plasma concentration-time curve (AUC0→24) as described (Ubaidulla et al., 2007). The values of Cmax and Tmax are read directly from the arithmetic plot of time vs plasma concentration of carvedilol. The AUC is calculated by using the trapezoidal rule. […]
# [6] = system: patients with Post Traumatic Stress Disorder (PTSD); test: Clinical trial of carvedilol versus placebo in the treatment of PTSD (efficacy scales); format: in vivo, human; parameters: key to Davidson Trauma Scale (DTS) change score / mean change score (DTS): change in DTS total score (34-item patient-rated, max 136); key to Insomnia Severity Index (ISI) change score: change in ISI score (self-rated 7-item scale, max 28); key to Davidson Trauma Scale (DTS) change score, mean change (SD): mean (SD) change in DTS total score (max 136); conditions: for Clinician Administered PTSD Scale (CAPS II) change score: completer only analysis
# Source text: The efficacy of carvedilol was examined in a clinical trial using a parallel group, randomized, double-blind method with 50% of the outpatients receiving a flexible dose of alpha and beta blocker carvedilol for treatment of PTSD and the other 50% receiving a flexible close of matching placebo tablets. The trial consisted of a one week screening period followed by baseline symptom measurement and five weeks of PTSD pharmacotherapy. Patient assessments took place each week throughout the course of the trial. Patients between 18 and 70 years of age were eligible for enrollment. A minimum score of 60 was required on the Clinician Administered PTSD Scale (CAPS-II) at the screening visit and all patients met clinical criteria for PTSD in accordance with the Diagnostic and Statistical Manual IV and confirmed by the Mini International Neuropsychological Interview (MINI). Eighty-three subjects were enrolled and randomized to carvedilol or placebo. […] The final efficacy analysis included 38 patients allocated to carvedilol, and 39 patients allocated to placebo. All of the patients, study coordinators, and principal investigators were blinded from the patient treatment allocation. Patients were randomly assigned to kits containing carvedilol or placebo at the baseline visit. At the baseline visit, all patients were titrated to one dose of 3.125 mg carvedilol or placebo in the morning and an additional dose in the evening for the first week of the trial (6.25 mg carvedilol per day). At the discretion of the investigator the dose of carvedilol or placebo could be increased to a maximum of two tablets (6.250 mg carvedilol) in the morning and two tablets (6.250 mg carvedilol) in the evening during the following visit (week 1). At the week 2 visit the investigator could increase the dose of carvedilol or placebo to a maximum of 5 pills daily (15.625 mg carvedilol per day) based on patient tolerability and treatment response. After the second visit investigators were encouraged to maintain patient dose throughout the remainder of the five week trial although they were allowed to decrease the dose in the event that tolerability issues arose. Although a minimum score of 60 on the CAPS-II was required at the screening visit as entry criteria, the Davidson Trauma Scale (DTS) was used as primary outcome measurement. The DTS is a 34-item patient rated scale with a maximum total score of 136. The DTS is designed to measure frequency and severity of three subtypes of PTSD symptoms: intrusion, avoidance and hyperarousal. Patients completed the DTS at the baseline visit and at each visit throughout the course of the trial. Secondary outcome measures included the Insomnia Severity Index (ISI), the Clinician Global Impressions (CGI) Scale, and each of the three DTS subscales. The ISI is a self-rated 7-item scale (maximum score=28) designed to measure insomnia during clinical research. The ISI was completed at each visit throughout the trial. The CGI was also completed during each visit. As an additional secondary outcome, the change in CAPS-II score was evaluated from the screening visit to the last trial visit for patients that completed the trial. The trial data analysis was designed to investigate the hypothesis that carvedilol would provide relief from symptoms for patients clinically diagnosed with PTSD. To evaluate this possibility, an analysis of covariance (ANCOVA) test was conducted on the primary outcome variable and a series of independent samples t tests were conducted on secondary outcome variables. Each statistical test was conducted using SPSS version 19.0 (IBM). All patients that completed the baseline visit and at least one follow up measurement were included in the analysis. […] Therefore, the final completed measurement of PTSD symptoms was used as the end data point in the event that patients terminated from the trial early. […]
# male Sprague-Dawley rats = test: Escape/avoidance behavior after tailshock stress (Example 1); format: in vivo, rat; conditions: compared to animals that did not receive medication
# Source text: Subjects are male, Sprague-Dawley (SD) rats. They are approximately 60-days-old and 300-350 g at the time of testing. They are maintained on ad lib food and water except during the stress and escape/avoidance sessions. Subjects are maintained on a 12:12 light/dark cycle, with lights on at 0700. […] The animals that receive shocks are restrained in plastic tubes (Harvard Apparatus, Inc, Holliston, Mass., USA) and have tail electrodes attached. The single shock session consists of forty 3-s, 2-mA tailshocks, presented on a variable time (VT) 3-min schedule, making the shock session approximately 2 h in duration. Escape/avoidance sessions are conducted in 4 operant chambers (Coulbourn, Inc, Allentown, Pa., USA). The chambers are 30.5 cm wide×25.4 cm deep×30.5 cm high and have a lever mounted on one wall. Subjects are allowed approximately 1 min to explore the chamber before the session begins. The trial begins with a warning signal and houselight. […] 60 s of the warning signal, they receive 1.0-mA footshock through the grid floor. […] A […] shock is classified as an “escape”, while a response that occurred during the initial 60 s of the warning signal before the shock is classified as an “avoidance.” The number of escape and avoidance responses by hour across the session, percent avoidance, and the number of leverpresses during the safety period (a putative measure of anxiety) are analyzed. […]
# [7] = males and females that were not veterans
# [8] = males and females that were not veterans (n=31)
smiles,measurement,setting,value
COc1ccccc1OCCNCC(COc1cccc2[nH]c3ccccc3c12)OP(=O)([O-])[O-].[Na+].[Na+] (stereo not drawn),generation of carvedilol by enzymatic dephosphorylation (HPLC),alkaline phosphatase,the carvedilol HPLC peak reappeared
"COc1ccccc1OCCNCC(O)COc1cccc2[nH]c3ccccc3c12 (racemic) [carvedilol, (±) 1-(9H-carbazol-4-yloxy)-3-[[2(2-methoxyphenoxy)ethyl]amino]-2-propanol]","logarithmic partition coefficient, log octanol/buffer pH 7.4",[1],0.61±0.06
same,Biopharmaceutics Classification System class,[2],Class 4
same,plasma half-life,[3],approximately 6 hours
same,patients that reported adverse events,[4]; 28 patients assigned to carvedilol,66%
same,mean change in diastolic blood pressure,[4]; baseline visit to end of study,−0.7 mm Hg
same,mean change in heart rate,[4]; baseline visit to end of study,−3.7 beats/minute
same,mean change in systolic blood pressure,[4]; baseline visit to end of study,−4.3±9.7 mm Hg
same,adverse events that occurred in over 5% of carvedilol patients,"[4]; human, in vivo","somnolence, headache and common cold"
same,"Cmax, oral versus transdermal patch administration",[5]; oral and transdermal patch,approximately similar
same,"AUC, transdermal patch relative to oral administration",[5]; transdermal patch vs oral,2.5 to 3 fold
same,mean change score (DTS),[6]; 15 female assault victims (physical or sexual assault),−31.8
same,mean DTS change score,"[6]; all patients assigned to carvedilol (n=38), baseline to final visit, LOCF, 6.25-15.625 mg per day, five weeks",−24.6 (SD±23.8)
same,"effect size d, change score, carvedilol vs placebo",[6]; female assault victims,0.95
same,"effect size d, DTS Avoidance Subscale, carvedilol vs placebo",[6]; [7],d = 0.21
same,"effect size d, DTS Hyperarousal Subscale, carvedilol vs placebo",[6]; [7],d = 0.18
same,"effect size d, DTS Intrusiveness Subscale, carvedilol vs placebo",[6]; [7],d = 0.61
same,"effect size d, DTS change score, carvedilol vs placebo",[6]; [7],d = 0.36
same,"effect size d, Insomnia Severity Index, carvedilol vs placebo",[6]; [7],d = 0.47
same,DTS Avoidance Subscale change score,[6]; [8],−8.7 ± 12.4
same,DTS Hyperarousal Subscale change score,[6]; [8],−7.7 ± 6.3
same,DTS Intrusiveness Subscale change score,[6]; [8],−8.8 ± 8.8
same,Insomnia Severity Index (ISI) change score,[6]; [8],−5.8 ± 6.8
same,"Davidson Trauma Scale (DTS) change score, mean change (SD)","[6]; males and females that were not veterans (n=31, 69% female), LOCF",−25.2 ± 25.3
same,Clinician Administered PTSD Scale (CAPS II) change score,[6]; [7],−20.6 ± 22.2
same,Clinician's Global Impression (CGI) change score,[6]; men (n=17),−1.2 ± 1.3
same,DTS Avoidance Subscale change score,[6]; men (n=17),−6.4 ± 8.3
same,DTS Hyperarousal Subscale change score,[6]; men (n=17),−6.6 ± 7.4
same,DTS Intrusiveness Subscale change score,[6]; men (n=17),−5.9 ± 7.5
same,Insomnia Severity Index (ISI) change score,[6]; men (n=17),−6.8 ± 6.7
same,Davidson Trauma Scale (DTS) change score,"[6]; men (n=17), baseline to final visit, LOCF",−18.8 (SD±19.1)
same,Davidson Trauma Scale (DTS) change score,"[6]; men (n=17), baseline to final visit, LOCF, listed as Carvedilol",−18.8 ± 19.1
same,Clinician Administered PTSD Scale (CAPS II) change score,"[6]; men, screening visit to week 7 final visit",−16.2 ± 19.0
same,Clinician's Global Impression (CGI) change score,[6]; women (n=21),−1.8 ± 0.2
same,DTS Avoidance Subscale change score,[6]; women (n=21),−10.4 ± 14.0
same,DTS Hyperarousal Subscale change score,[6]; women (n=21),−9.0 ± 8.9
same,DTS Intrusiveness Subscale change score,[6]; women (n=21),−9.9 ± 8.2
same,Insomnia Severity Index (ISI) change score,[6]; women (n=21),−5.1 ± 6.3
same,Davidson Trauma Scale (DTS) change score,"[6]; women (n=21), baseline to final visit, LOCF",−29.2 (SD±26.5)
same,Davidson Trauma Scale (DTS) change score,"[6]; women (n=21), baseline to final visit, LOCF, listed as Carvedilol",−29.2 ± 26.5
same,Clinician Administered PTSD Scale (CAPS II) change score,"[6]; women, screening visit to week 7 final visit",−21.7 ± 25.2
same,number of avoidance responses 24 h after tailshock,male Sprague-Dawley rats,decrease in the number of avoidance response 24 h later
